The kinase profiling compilation of Christmann-Franck et al. (2016)

How the values were obtained:
MTOR (human) = MTOR (human) (UniProt P42345); assay: SelectScreen, TR FRET
PIK3C2A (human) = PIK3C2A (human) (UniProt O00443); assay: SelectScreen, TR FRET
PRKDC (human) = PRKDC (human) (UniProt P78527); assay: SelectScreen, TR FRET
[1] = target: JAK3 JH1 catalytic (human) (UniProt P52333); assay: KINOMEscan competition binding; conditions: compound 10.0 µM
LRRK2 (human) = LRRK2 (human) (UniProt Q5S007); assay: KINOMEscan competition binding; conditions: compound 10.0 µM
SLK (human) = SLK (human) (UniProt Q9H2G2); assay: KINOMEscan competition binding; conditions: compound 10.0 µM
SYK (human) = SYK (human) (UniProt P43405); assay: KINOMEscan competition binding; conditions: compound 10.0 µM
DSTYK (human) = DSTYK (human) (UniProt Q6XUX3); assay: KINOMEscan competition binding; conditions: compound 10.0 µM
STK17A (human) = STK17A (human) (UniProt Q9UEE5); assay: KINOMEscan competition binding; conditions: compound 10.0 µM
EPHB3 (human) = EPHB3 (human) (UniProt P54753); assay: KINOMEscan competition binding; conditions: compound 10.0 µM
MAP3K2 (human) = MAP3K2 (human) (UniProt Q9Y2U5); assay: KINOMEscan competition binding; conditions: compound 10.0 µM
GSK3B (human) = GSK3B (human) (UniProt P49841); assay: KINOMEscan competition binding; conditions: compound 10.0 µM
BLK (human) = BLK (human) (UniProt P51451); assay: KINOMEscan competition binding; conditions: compound 10.0 µM
PRKG2 (human) = PRKG2 (human) (UniProt Q13237); assay: KINOMEscan competition binding; conditions: compound 10.0 µM
MYLK (human) = MYLK (human) (UniProt Q15746); assay: KINOMEscan competition binding; conditions: compound 10.0 µM
CDK14 (human) = CDK14 (human) (UniProt O94921); assay: KINOMEscan competition binding; conditions: compound 10.0 µM
RPS6KA6 KD2 (human) = RPS6KA6 KD2 (human) (UniProt Q9UK32); assay: KINOMEscan competition binding; conditions: compound 10.0 µM
LTK (human) = LTK (human) (UniProt P29376); assay: KINOMEscan competition binding; conditions: compound 10.0 µM
EPHB6 (human) = EPHB6 (human) (UniProt O15197); assay: KINOMEscan competition binding; conditions: compound 10.0 µM
CSF1R (human) = CSF1R (human) (UniProt P07333); assay: KINOMEscan competition binding; conditions: compound 10.0 µM
PIP5K1A (human) = PIP5K1A (human) (UniProt Q99755); assay: KINOMEscan competition binding; conditions: compound 10.0 µM
CDK7 (human) = CDK7 (human) (UniProt P50613); assay: KINOMEscan competition binding; conditions: compound 10.0 µM
PTK6 (human) = PTK6 (human) (UniProt Q13882); assay: KINOMEscan competition binding; conditions: compound 10.0 µM
MAPK14 (human) = MAPK14 (human) (UniProt Q16539); assay: KINOMEscan competition binding; conditions: compound 10.0 µM
PAK2 (human) = PAK2 (human) (UniProt Q13177); assay: KINOMEscan competition binding; conditions: compound 10.0 µM
STK10 (human) = STK10 (human) (UniProt O94804); assay: KINOMEscan competition binding; conditions: compound 10.0 µM
AURKC (human) = AURKC (human) (UniProt Q9UQB9); assay: KINOMEscan competition binding; conditions: compound 10.0 µM
CDKL2 (human) = CDKL2 (human) (UniProt Q92772); assay: KINOMEscan competition binding; conditions: compound 10.0 µM
NEK7 (human) = NEK7 (human) (UniProt Q8TDX7); assay: KINOMEscan competition binding; conditions: compound 10.0 µM
SRMS (human) = SRMS (human) (UniProt Q9H3Y6); assay: KINOMEscan competition binding; conditions: compound 10.0 µM
[2] = system: MET (human), P08581 [M1250T]; assay: KINOMEscan competition binding; conditions: compound 10.0 µM
NUAK2 (human) = NUAK2 (human) (UniProt Q9H093); assay: KINOMEscan competition binding; conditions: compound 10.0 µM
DDR2 (human) = DDR2 (human) (UniProt Q16832); assay: KINOMEscan competition binding; conditions: compound 10.0 µM
ULK1 (human) = ULK1 (human) (UniProt O75385); assay: KINOMEscan competition binding; conditions: compound 10.0 µM
CDK8 (human) = CDK8 (human) (UniProt P49336); assay: KINOMEscan competition binding; conditions: compound 10.0 µM
INSR (human) = INSR (human) (UniProt P06213); assay: KINOMEscan competition binding; conditions: compound 10.0 µM
NIM1 (human) = NIM1 (human) (UniProt Q8IY84); assay: KINOMEscan competition binding; conditions: compound 10.0 µM
DYRK2 (human) = DYRK2 (human) (UniProt Q92630); assay: KINOMEscan competition binding; conditions: compound 10.0 µM
CSNK1G3 (human) = CSNK1G3 (human) (UniProt Q9Y6M4); assay: KINOMEscan competition binding; conditions: compound 10.0 µM
[3] = system: FLT3 (human), P36888 [R834Q]; assay: KINOMEscan competition binding; conditions: compound 10.0 µM
MST4 (human) = MST4 (human) (UniProt Q9P289); assay: KINOMEscan competition binding; conditions: compound 10.0 µM
NEK11 (human) = NEK11 (human) (UniProt Q8NG66); assay: KINOMEscan competition binding; conditions: compound 10.0 µM

Sequence of INSR (human) (P06213 whole entry, looked up): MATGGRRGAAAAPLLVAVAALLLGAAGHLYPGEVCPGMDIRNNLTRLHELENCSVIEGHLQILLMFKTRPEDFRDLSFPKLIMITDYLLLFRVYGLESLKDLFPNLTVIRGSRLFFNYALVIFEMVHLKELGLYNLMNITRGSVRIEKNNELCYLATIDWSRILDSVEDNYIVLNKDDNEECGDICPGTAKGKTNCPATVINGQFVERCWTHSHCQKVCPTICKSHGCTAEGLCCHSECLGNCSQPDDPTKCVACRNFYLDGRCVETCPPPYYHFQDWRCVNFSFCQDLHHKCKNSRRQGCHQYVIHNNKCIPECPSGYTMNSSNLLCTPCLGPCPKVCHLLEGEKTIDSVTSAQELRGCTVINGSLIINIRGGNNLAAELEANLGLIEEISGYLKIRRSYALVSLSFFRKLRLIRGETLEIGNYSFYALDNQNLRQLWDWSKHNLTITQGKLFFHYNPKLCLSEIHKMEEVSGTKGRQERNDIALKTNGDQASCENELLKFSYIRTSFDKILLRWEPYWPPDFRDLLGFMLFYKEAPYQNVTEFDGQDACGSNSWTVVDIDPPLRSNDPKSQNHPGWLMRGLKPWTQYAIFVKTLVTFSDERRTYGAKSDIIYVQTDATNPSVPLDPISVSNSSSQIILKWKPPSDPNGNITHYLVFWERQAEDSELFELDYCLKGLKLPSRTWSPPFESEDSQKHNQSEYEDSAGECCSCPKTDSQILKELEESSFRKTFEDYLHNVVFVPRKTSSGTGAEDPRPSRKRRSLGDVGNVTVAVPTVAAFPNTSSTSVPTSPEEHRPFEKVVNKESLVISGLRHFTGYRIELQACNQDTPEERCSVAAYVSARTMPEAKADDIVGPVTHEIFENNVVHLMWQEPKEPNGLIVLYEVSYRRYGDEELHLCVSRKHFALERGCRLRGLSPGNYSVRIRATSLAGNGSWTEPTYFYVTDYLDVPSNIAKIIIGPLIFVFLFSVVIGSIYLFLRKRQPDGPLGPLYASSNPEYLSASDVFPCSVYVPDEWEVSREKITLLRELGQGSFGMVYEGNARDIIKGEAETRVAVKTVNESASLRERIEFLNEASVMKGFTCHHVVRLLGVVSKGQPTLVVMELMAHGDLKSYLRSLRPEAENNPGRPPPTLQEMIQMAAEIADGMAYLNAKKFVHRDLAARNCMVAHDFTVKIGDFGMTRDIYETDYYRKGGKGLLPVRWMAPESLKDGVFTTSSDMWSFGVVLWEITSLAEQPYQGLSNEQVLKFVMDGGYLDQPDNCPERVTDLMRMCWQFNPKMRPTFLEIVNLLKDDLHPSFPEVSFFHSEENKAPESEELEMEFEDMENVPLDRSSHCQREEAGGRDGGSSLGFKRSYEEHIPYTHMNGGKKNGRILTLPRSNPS
Sequence of SRMS (human) (Q9H3Y6 whole entry, looked up): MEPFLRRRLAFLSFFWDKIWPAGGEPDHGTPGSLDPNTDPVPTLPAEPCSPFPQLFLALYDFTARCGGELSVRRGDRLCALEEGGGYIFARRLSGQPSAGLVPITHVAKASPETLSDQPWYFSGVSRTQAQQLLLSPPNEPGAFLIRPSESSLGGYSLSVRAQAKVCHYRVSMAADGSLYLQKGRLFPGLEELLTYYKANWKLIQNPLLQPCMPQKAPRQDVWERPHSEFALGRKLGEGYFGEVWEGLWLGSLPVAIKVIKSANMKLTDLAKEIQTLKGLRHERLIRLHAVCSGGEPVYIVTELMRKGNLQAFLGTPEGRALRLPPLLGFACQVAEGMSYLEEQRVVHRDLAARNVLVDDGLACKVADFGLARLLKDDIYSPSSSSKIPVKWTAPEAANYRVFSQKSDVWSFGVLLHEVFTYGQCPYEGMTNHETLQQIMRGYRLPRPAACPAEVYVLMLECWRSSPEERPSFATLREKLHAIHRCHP
Sequence of BLK (human) (P51451 whole entry, looked up): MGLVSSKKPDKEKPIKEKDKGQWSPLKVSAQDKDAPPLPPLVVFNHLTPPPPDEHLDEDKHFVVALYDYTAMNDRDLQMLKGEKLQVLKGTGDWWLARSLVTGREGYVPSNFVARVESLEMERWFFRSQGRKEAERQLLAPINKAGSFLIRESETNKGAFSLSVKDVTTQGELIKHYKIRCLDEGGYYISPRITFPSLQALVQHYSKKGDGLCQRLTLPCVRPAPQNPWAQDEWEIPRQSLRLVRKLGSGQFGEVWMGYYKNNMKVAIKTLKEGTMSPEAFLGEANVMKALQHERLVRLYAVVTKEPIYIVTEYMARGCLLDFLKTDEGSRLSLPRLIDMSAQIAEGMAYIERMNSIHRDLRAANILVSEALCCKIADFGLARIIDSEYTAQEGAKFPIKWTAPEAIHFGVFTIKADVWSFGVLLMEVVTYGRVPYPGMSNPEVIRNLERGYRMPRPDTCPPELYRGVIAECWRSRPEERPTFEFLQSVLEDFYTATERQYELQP
Sequence of MST4 (human) (Q9P289 whole entry, looked up): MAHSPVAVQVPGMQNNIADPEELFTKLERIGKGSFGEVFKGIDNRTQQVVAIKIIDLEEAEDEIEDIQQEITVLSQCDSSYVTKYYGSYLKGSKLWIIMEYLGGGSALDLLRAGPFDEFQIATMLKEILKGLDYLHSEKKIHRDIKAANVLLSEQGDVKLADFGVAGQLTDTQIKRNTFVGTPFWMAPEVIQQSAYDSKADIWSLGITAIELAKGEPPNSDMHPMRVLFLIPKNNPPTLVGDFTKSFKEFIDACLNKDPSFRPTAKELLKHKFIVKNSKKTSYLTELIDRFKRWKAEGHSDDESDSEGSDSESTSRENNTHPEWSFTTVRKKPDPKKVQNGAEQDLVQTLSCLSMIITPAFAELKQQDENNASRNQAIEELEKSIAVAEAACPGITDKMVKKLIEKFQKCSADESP
Sequence of ULK1 (human) (O75385 whole entry, looked up): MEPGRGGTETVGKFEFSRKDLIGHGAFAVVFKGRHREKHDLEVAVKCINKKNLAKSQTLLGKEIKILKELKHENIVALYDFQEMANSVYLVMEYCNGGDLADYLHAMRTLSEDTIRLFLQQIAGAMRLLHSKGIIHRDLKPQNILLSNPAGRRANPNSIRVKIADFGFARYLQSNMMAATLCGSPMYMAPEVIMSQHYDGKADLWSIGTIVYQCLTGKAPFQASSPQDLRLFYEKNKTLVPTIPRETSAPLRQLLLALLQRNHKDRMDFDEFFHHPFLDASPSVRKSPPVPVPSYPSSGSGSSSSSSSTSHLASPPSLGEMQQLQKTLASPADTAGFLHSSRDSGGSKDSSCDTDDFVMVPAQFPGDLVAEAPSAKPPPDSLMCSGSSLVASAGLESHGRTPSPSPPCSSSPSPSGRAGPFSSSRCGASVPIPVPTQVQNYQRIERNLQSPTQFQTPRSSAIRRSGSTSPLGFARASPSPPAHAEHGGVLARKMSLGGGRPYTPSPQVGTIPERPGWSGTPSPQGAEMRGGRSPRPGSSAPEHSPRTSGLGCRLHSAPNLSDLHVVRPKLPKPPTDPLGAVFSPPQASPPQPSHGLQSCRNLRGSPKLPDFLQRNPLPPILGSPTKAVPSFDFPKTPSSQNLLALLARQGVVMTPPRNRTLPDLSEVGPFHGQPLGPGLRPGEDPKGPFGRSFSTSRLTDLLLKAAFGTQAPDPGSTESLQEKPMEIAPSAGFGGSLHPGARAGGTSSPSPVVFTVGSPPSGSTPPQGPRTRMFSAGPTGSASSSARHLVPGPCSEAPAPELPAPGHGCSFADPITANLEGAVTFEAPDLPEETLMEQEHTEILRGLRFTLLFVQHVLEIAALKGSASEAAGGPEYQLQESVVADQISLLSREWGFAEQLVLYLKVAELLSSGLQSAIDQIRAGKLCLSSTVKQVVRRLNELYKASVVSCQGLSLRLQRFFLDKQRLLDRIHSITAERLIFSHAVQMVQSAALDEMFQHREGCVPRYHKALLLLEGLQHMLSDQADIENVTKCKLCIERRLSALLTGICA
Sequence of PRKG2 (human) (Q13237 whole entry, looked up): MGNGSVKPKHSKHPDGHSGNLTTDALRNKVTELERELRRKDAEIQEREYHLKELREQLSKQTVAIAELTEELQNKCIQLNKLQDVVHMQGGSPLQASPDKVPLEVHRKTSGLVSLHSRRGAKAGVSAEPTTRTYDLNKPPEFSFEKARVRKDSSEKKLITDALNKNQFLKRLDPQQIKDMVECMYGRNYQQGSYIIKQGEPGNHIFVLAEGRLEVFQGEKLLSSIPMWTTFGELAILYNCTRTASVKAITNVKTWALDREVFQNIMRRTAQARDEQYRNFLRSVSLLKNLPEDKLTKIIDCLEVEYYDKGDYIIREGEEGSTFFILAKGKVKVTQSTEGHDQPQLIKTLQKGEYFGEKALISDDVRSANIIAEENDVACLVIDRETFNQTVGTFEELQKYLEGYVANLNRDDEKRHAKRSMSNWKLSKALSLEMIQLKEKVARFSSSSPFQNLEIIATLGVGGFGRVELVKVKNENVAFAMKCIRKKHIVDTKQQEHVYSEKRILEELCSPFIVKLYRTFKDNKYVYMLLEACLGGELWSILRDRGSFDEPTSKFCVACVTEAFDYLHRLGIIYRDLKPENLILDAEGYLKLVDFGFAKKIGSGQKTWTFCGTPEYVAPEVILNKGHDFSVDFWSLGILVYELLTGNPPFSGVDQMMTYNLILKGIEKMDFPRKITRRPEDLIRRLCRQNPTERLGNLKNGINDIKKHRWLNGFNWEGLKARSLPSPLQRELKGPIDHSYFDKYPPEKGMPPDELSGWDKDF
Sequence of CDK14 (human) (O94921 whole entry, looked up): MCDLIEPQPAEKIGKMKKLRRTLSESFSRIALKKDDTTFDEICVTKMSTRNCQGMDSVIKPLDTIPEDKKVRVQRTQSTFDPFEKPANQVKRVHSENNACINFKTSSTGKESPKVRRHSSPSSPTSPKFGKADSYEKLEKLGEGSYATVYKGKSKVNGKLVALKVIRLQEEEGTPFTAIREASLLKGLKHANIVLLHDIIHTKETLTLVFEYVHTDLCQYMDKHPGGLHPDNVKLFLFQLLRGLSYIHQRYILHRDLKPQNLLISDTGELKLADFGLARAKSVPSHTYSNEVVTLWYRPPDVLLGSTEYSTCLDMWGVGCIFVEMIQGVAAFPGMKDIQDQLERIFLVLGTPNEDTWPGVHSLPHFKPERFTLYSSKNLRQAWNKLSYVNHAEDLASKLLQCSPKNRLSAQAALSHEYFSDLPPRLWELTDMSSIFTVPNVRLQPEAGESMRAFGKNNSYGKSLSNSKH

Q: With `Cc1cc([C@@H](C)Nc2ccccc2C(=O)O)c2nc(N3CCOCC3)cc(=O)n2c1` as the compound, how does the IC50 (MTOR (human)) read?
A: Its IC50 is 3930 nM.

Q: What about the IC50 (PIK3C2A (human)) of the same compound?
A: Its IC50 is over 1000 nM.

Q: And the IC50 (PRKDC (human))?
A: The IC50 was 53.7 nM.

Q: And the kinase still bound, per cent of control [1]?
A: The kinase still bound, per cent of control was 100%.

Q: What about the kinase still bound, per cent of control (LRRK2 (human)) of the same compound?
A: Its kinase still bound, per cent of control is 97%.

Q: What about the kinase still bound, per cent of control (SLK (human)) of the same compound?
A: The kinase still bound, per cent of control was 85%.

Q: What about the kinase still bound, per cent of control (SYK (human)) of the same compound?
A: The kinase still bound, per cent of control was 90%.

Q: What about the kinase still bound, per cent of control (DSTYK (human)) of the same compound?
A: Its kinase still bound, per cent of control is 90%.

Q: What about the kinase still bound, per cent of control (STK17A (human)) of the same compound?
A: Its kinase still bound, per cent of control is 87%.

Q: And the kinase still bound, per cent of control (EPHB3 (human))?
A: The kinase still bound, per cent of control was 100%.

Q: What about the kinase still bound, per cent of control (MAP3K2 (human)) of the same compound?
A: The kinase still bound, per cent of control was 88%.

Q: What about the kinase still bound, per cent of control (GSK3B (human)) of the same compound?
A: The kinase still bound, per cent of control was 100%.

Q: What about the kinase still bound, per cent of control (BLK (human)) of the same compound?
A: The kinase still bound, per cent of control was 100%.

Q: And the kinase still bound, per cent of control (PRKG2 (human))?
A: Its kinase still bound, per cent of control is 100%.

Q: And the kinase still bound, per cent of control (MYLK (human))?
A: The kinase still bound, per cent of control was 43%.

Q: What about the kinase still bound, per cent of control (CDK14 (human)) of the same compound?
A: Its kinase still bound, per cent of control is 100%.

Q: And the kinase still bound, per cent of control (RPS6KA6 KD2 (human))?
A: The kinase still bound, per cent of control was 71%.

Q: What about the kinase still bound, per cent of control (LTK (human)) of the same compound?
A: The kinase still bound, per cent of control was 61%.

Q: What about the kinase still bound, per cent of control (EPHB6 (human)) of the same compound?
A: The kinase still bound, per cent of control was 40%.

Q: And the kinase still bound, per cent of control (CSF1R (human))?
A: The kinase still bound, per cent of control was 55%.

Q: What about the kinase still bound, per cent of control (PIP5K1A (human)) of the same compound?
A: The kinase still bound, per cent of control was 100%.

Q: What about the kinase still bound, per cent of control (CDK7 (human)) of the same compound?
A: Its kinase still bound, per cent of control is 90%.

Q: And the kinase still bound, per cent of control (PTK6 (human))?
A: Its kinase still bound, per cent of control is 15%.

Q: And the kinase still bound, per cent of control (MAPK14 (human))?
A: Its kinase still bound, per cent of control is 100%.

Q: What about the kinase still bound, per cent of control (PAK2 (human)) of the same compound?
A: The kinase still bound, per cent of control was 100%.

Q: What about the kinase still bound, per cent of control (STK10 (human)) of the same compound?
A: The kinase still bound, per cent of control was 71%.

Q: What about the kinase still bound, per cent of control (AURKC (human)) of the same compound?
A: The kinase still bound, per cent of control was 91%.

Q: And the kinase still bound, per cent of control (CDKL2 (human))?
A: The kinase still bound, per cent of control was 100%.

Q: What about the kinase still bound, per cent of control (NEK7 (human)) of the same compound?
A: Its kinase still bound, per cent of control is 98%.

Q: What about the kinase still bound, per cent of control (SRMS (human)) of the same compound?
A: The kinase still bound, per cent of control was 100%.

Q: And the kinase still bound, per cent of control [2]?
A: The kinase still bound, per cent of control was 67%.

Q: And the kinase still bound, per cent of control (NUAK2 (human))?
A: The kinase still bound, per cent of control was 100%.

Q: What about the kinase still bound, per cent of control (DDR2 (human)) of the same compound?
A: Its kinase still bound, per cent of control is 100%.

Q: And the kinase still bound, per cent of control (ULK1 (human))?
A: Its kinase still bound, per cent of control is 73%.

Q: And the kinase still bound, per cent of control (CDK8 (human))?
A: The kinase still bound, per cent of control was 100%.

Q: What about the kinase still bound, per cent of control (INSR (human)) of the same compound?
A: Its kinase still bound, per cent of control is 79%.

Q: What about the kinase still bound, per cent of control (NIM1 (human)) of the same compound?
A: Its kinase still bound, per cent of control is 100%.

Q: What about the kinase still bound, per cent of control (DYRK2 (human)) of the same compound?
A: The kinase still bound, per cent of control was 72%.

Q: And the kinase still bound, per cent of control (CSNK1G3 (human))?
A: Its kinase still bound, per cent of control is 95%.

Q: What about the kinase still bound, per cent of control [3] of the same compound?
A: The kinase still bound, per cent of control was 100%.

Q: And the kinase still bound, per cent of control (MST4 (human))?
A: The kinase still bound, per cent of control was 100%.

Q: And the kinase still bound, per cent of control (NEK11 (human))?
A: The kinase still bound, per cent of control was 68%.
